The experiment deals with T1, FPRL-1 (Homo sapiens, UniProt P25090).
T1 construct: expressed in transfected cells
T1 sequence (P25090 1-351): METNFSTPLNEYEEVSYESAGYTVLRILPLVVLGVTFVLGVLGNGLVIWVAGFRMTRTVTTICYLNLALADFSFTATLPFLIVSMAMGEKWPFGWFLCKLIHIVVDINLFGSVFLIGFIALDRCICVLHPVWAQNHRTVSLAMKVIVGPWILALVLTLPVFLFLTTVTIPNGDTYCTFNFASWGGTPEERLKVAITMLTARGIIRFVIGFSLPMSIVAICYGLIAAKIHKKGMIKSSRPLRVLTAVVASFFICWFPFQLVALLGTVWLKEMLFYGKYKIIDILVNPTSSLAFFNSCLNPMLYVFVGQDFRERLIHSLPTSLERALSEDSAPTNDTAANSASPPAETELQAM
Description: FLIPR Tetra calcium activity assay in CHO-Ga16 cells stably expressing FPRL1. The conditions noted are these: compound-induced calcium activity; for EC50: 0.61 to 10,000 nM; for FPRL-1 Ga16-CHO (eff) efficacy: efficacy value in parentheses. In kind it is cell-based. The procedure:
CHO-Ga16 cells stably expressing FPRL1 were cultured in (F12, 10% FBS, 1% PSA, 400 μg/ml geneticin and 50 μg/ml hygromycin) and HEK-Gqi5 cells stable expressing FPR1 were cultured in (DMEM high glucose, 10% FBS, 1% PSA, 400 μg/ml geneticin and 50 μg/ml hygromycin). In general, the day before the experiment, 18,000 cells/well were plated in a 384-well clear bottom poly-d-lysine coated plate. The following day the screening compound-induced calcium activity was assayed on the FLIPR^Tetra. The drug plates were prepared in 384-well microplates using the EP3 and the MultiPROBE robotic liquid handling systems. Compounds were tested at concentrations ranging from 0.61 to 10,000 nM. Results are expressed as EC50 (nM) and efficacy values.

By EC50 is commonly meant the concentration needed to bring the measured effect to its halfway point.

Consider `COc1cc2c(cc1OC)CN(C(=O)C(CCCCNC(=O)NC1CCCCC1)NC(=O)Nc1ccc(SC)cc1)CC2` (centres unmarked) [Compound 4], for which the EC50 is 59 nM and the “FPRL-1 Ga16-CHO (eff) efficacy” value is on record as 0.71.

For `COc1cc2c(cc1OC)CN(C(=O)C(CCCCNC(=O)Nc1ccccc1)NC(=O)Nc1ccc(Br)cc1)CC2` (centres unmarked) [Compound 2], the EC50 amounted to 91 nM and the “FPRL-1 Ga16-CHO (eff) efficacy” value turned out to be 0.79.

`COc1cc2c(cc1OC)CN(C(=O)C(CCCCNC(=O)c1ccco1)NC(=O)Nc1ccc(C)cc1)CC2` (centres unmarked) [Compound 1]: the EC50 came to 143 nM and the “FPRL-1 Ga16-CHO (eff) efficacy” value was 0.61.

For the compound `COc1cc2c(cc1OC)CN(C(=O)C(CCCCNC(=O)Nc1ccccc1)NC(=O)Nc1ccc(SC)cc1)CC2` (centres unmarked) [Compound 3], the 50% effective concentration (EC50) is 32 nM and the “FPRL-1 Ga16-CHO (eff) efficacy” value is reported as 0.76.

Values taken from patent publication US8507560B2, “Pharmaceutical compositions comprising 3,4-dihydroisoquinolin-2(1H)-yl-3-phenylurea derivatives having formyl peptide receptor like-1 (FPRL-1) agonist or antagonist activity” (Allergan, Inc., priority 2010, dated 2013).
